{
  "source": "ChEMBL document CHEMBL5505975",
  "about": "“Design, synthesis and biological evaluation of CDC20 inhibitors for treatment of triple-negative breast cancer” (Eur J Med Chem, 2024)",
  "key": {"MDA-MB-231 [1]": {"test_system": "MDA-MB-231", "assay": "Cell cycle arrest in human MDA-MB-231 cells assessed as G1 phase cells at 20 uM incubated for 24 hrs by PI staining based flow cytometric analysis (reference value: 56.7%)", "assay_type": "functional"}, "MDA-MB-231 [2]": {"test_system": "MDA-MB-231", "assay": "Induction of apoptosis in human MDA-MB-231 cells assessed as viable cells at 5 uM incubated for 48 hrs by Annexin V-FITC/PI staining based flow cytometric analysis (reference value: 95.10%)", "assay_type": "functional", "settings": "read-out: Activity"}, "[3]": {"assay": "Toxicity in female BALB/C mouse implanted with mouse 4T1 cells assessed as spleen damage at 20 to 50 mg/kg, iv administered every two days for 21 days by H and E staining based analysis", "assay_type": "organism-based", "settings": "in vivo, 504 h, dose 20-50 mg/kg, time 21 day"}, "MDA-MB-231 [4]": {"test_system": "MDA-MB-231", "assay": "Induction of apoptosis in human MDA-MB-231 cells assessed as late apoptotic cells at 2.5 uM incubated for 48 hrs by Annexin V-FITC/PI staining based flow cytometric analysis (reference value: 1.06%)", "assay_type": "functional"}, "MDA-MB-231 [5]": {"test_system": "MDA-MB-231", "assay": "Cell cycle arrest in human MDA-MB-231 cells assessed as G1 phase cells at 20 uM incubated for 72 hrs by PI staining based flow cytometric analysis (reference value: 56.7%)", "assay_type": "functional"}, "[6]": {"assay": "Toxicity in female BALB/C mouse implanted with mouse 4T1 cells assessed as change in serum CK level at 20 to 50 mg/kg, iv administered every two days for 21 days", "assay_type": "organism-based", "settings": "in vivo, 504 h, dose 20-50 mg/kg, time 21 day"}, "MDA-MB-231 [7]": {"test_system": "MDA-MB-231", "assay": "Induction of autophagy in human MDA-MB-231 cells assessed as decrease in P62 expression level incubated for 48 hrs by Western blot analysis", "assay_type": "functional, cell-based", "settings": "dose 5-20 µM"}, "[8]": {"assay": "Toxicity in female BALB/C mouse implanted with mouse 4T1 cells assessed as change in serum CK level at 20 to 50 mg/kg, po administered every two days for 21 days", "assay_type": "organism-based", "settings": "in vivo, 504 h, dose 20-50 mg/kg, time 21 day"}, "[9]": {"assay": "Toxicity in female BALB/C mouse implanted with mouse 4T1 cells assessed as change in WBC level at 20 to 50 mg/kg, po administered every two days for 21 days by routine blood analysis", "assay_type": "organism-based", "settings": "in vivo, 504 h, dose 20-50 mg/kg, time 21 day"}, "[10]": {"assay": "Toxicity in female BALB/C mouse implanted with mouse 4T1 cells assessed as kidney damage at 20 to 50 mg/kg, po administered every two days for 21 days by H and E staining based analysis", "assay_type": "organism-based", "settings": "in vivo, 504 h, dose 20-50 mg/kg, time 21 day"}, "[11]": {"assay": "Toxicity in female BALB/C mouse implanted with mouse 4T1 cells assessed as effect on monocytes at 20 to 50 mg/kg, po administered every two days for 21 days by routine blood analysis", "assay_type": "organism-based", "settings": "in vivo, 504 h, dose 20-50 mg/kg, time 21 day"}, "4T1 [12]": {"test_system": "4T1", "assay": "Antitumor activity against mouse 4T1 cells implanted in female BALB/C mouse assessed as inhibition of tumor weight at 20 mg/kg, iv administered every two days for 21 days relative to control", "assay_type": "functional, organism-based", "settings": "time 21.0 day"}, "[13]": {"assay": "Toxicity in female BALB/C mouse implanted with mouse 4T1 cells assessed as effect on neutrophils at 20 to 50 mg/kg, iv administered every two days for 21 days by routine blood analysis", "assay_type": "organism-based", "settings": "in vivo, 504 h, dose 20-50 mg/kg, time 21 day"}, "MDA-MB-231 [14]": {"test_system": "MDA-MB-231", "assay": "Cell cycle arrest in human MDA-MB-231 cells assessed as S phase cells at 20 uM incubated for 48 hrs by PI staining based flow cytometric analysis (reference value: 16.0%)", "assay_type": "functional"}, "MCF7": {"test_system": "MCF7", "assay": "Antiproliferative activity against human MCF7 cells assessed as reduction in cell viability incubated for 96 hrs by MTT assay", "settings": "MCF7, 96 h"}, "MDA-MB-231 [15]": {"test_system": "MDA-MB-231", "assay": "Induction of apoptosis in human MDA-MB-231 cells assessed as late apoptotic cells at 10 uM incubated for 48 hrs by Annexin V-FITC/PI staining based flow cytometric analysis (reference value: 1.06%)", "assay_type": "functional"}, "[16]": {"assay": "Toxicity in female BALB/C mouse implanted with mouse 4T1 cells assessed as change in serum AST level at 20 to 50 mg/kg, po administered every two days for 21 days", "assay_type": "organism-based", "settings": "in vivo, 504 h, dose 20-50 mg/kg, time 21 day"}, "MDA-MB-231 [17]": {"test_system": "MDA-MB-231", "assay": "Induction of apoptosis in human MDA-MB-231 cells assessed as necrotic cells at 20 uM incubated for 48 hrs by Annexin V-FITC/PI staining based flow cytometric analysis (reference value: 1.63%)", "assay_type": "functional"}, "[18]": {"assay": "Toxicity in female BALB/C mouse implanted with mouse 4T1 cells assessed as effect on body weight at 20 to 50 mg/kg, po administered every two days for 21 days", "assay_type": "organism-based", "settings": "in vivo, 504 h, dose 20-50 mg/kg, time 21 day"}, "4T1 [19]": {"test_system": "4T1", "assay": "Antitumor activity against mouse 4T1 cells implanted in female BALB/C mouse assessed as inhibition of tumor weight at 50 mg/kg, po administered every two days for 21 days relative to control", "assay_type": "functional, organism-based", "settings": "time 21.0 day"}, "4T1 [20]": {"test_system": "4T1", "assay": "Antitumor activity against mouse 4T1 cells implanted in female BALB/C mouse assessed as inhibition of tumor growth at 20 to 50 mg/kg, po administered every two days for 21 days", "assay_type": "functional, organism-based", "settings": "dose 20-50 mg/kg, time 21.0 day"}, "[21]": {"assay": "Toxicity in female BALB/C mouse implanted with mouse 4T1 cells assessed as change in serum LDH level at 20 to 50 mg/kg, iv administered every two days for 21 days", "assay_type": "organism-based", "settings": "in vivo, 504 h, dose 20-50 mg/kg, time 21 day"}, "[22]": {"assay": "Toxicity in female BALB/C mouse implanted with mouse 4T1 cells assessed as liver damage at 20 to 50 mg/kg, po administered every two days for 21 days by H and E staining based analysis", "assay_type": "organism-based", "settings": "in vivo, 504 h, dose 20-50 mg/kg, time 21 day"}, "[23]": {"assay": "Toxicity in female BALB/C mouse implanted with mouse 4T1 cells assessed as lung damage at 20 to 50 mg/kg, po administered every two days for 21 days by H and E staining based analysis", "assay_type": "organism-based", "settings": "in vivo, 504 h, dose 20-50 mg/kg, time 21 day"}, "MDA-MB-231 [24]": {"test_system": "MDA-MB-231", "assay": "Antiproliferative activity against human MDA-MB-231 cells assessed as reduction in cell viability incubated for 96 hrs by MTT assay", "settings": "MDA-MB-231, 96 h"}, "MDA-MB-231 [25]": {"test_system": "MDA-MB-231", "assay": "Induction of apoptosis in human MDA-MB-231 cells assessed as early apoptotic cells at 5 uM incubated for 48 hrs by Annexin V-FITC/PI staining based flow cytometric analysis (reference value: 2.25 %)", "assay_type": "functional"}, "MDA-MB-231 [26]": {"test_system": "MDA-MB-231", "assay": "Induction of apoptosis in human MDA-MB-231 cells assessed as late apoptotic cells at 5 uM incubated for 48 hrs by Annexin V-FITC/PI staining based flow cytometric analysis (reference value: 1.06%)", "assay_type": "functional"}, "MDA-MB-231 [27]": {"test_system": "MDA-MB-231", "assay": "Induction of apoptosis in human MDA-MB-231 cells assessed as necrotic cells at 5 uM incubated for 48 hrs by Annexin V-FITC/PI staining based flow cytometric analysis (reference value: 1.63%)", "assay_type": "functional"}, "A549": {"test_system": "A549", "assay": "Antiproliferative activity against human A549 cells assessed as reduction in cell viability incubated for 96 hrs by MTT assay", "settings": "A549, 96 h"}, "MDA-MB-231 [28]": {"test_system": "MDA-MB-231", "assay": "Induction of apoptosis in human MDA-MB-231 cells assessed as necrotic cells at 2.5 uM incubated for 48 hrs by Annexin V-FITC/PI staining based flow cytometric analysis (reference value: 1.63%)", "assay_type": "functional"}, "MDA-MB-231 [29]": {"test_system": "MDA-MB-231", "assay": "Induction of autophagy in human MDA-MB-231 cells assessed as increase in LC3BII expression level incubated for 48 hrs by Western blot analysis", "assay_type": "functional, cell-based"}, "4T1 [30]": {"test_system": "4T1", "assay": "Antitumor activity against mouse 4T1 cells implanted in female BALB/C mouse assessed as inhibition of tumor weight at 20 mg/kg, po administered every two days for 21 days relative to control", "assay_type": "functional, organism-based", "settings": "time 21.0 day"}, "MDA-MB-231 [31]": {"test_system": "MDA-MB-231", "assay": "Cell cycle arrest in human MDA-MB-231 cells assessed as G2 phase cells at 20 uM incubated for 48 hrs by PI staining based flow cytometric analysis (reference value: 14.6%)", "assay_type": "functional"}, "4T1 [32]": {"test_system": "4T1", "assay": "Antitumor activity against mouse 4T1 cells implanted in female BALB/C mouse assessed as inhibition of tumor weight at 50 mg/kg, iv administered every two days for 21 days relative to control", "assay_type": "functional, organism-based", "settings": "time 21.0 day"}},
  "note": "Calls of active or inactive are those of the source. The calls are words filed in the database; no cut-off is given here.",
  "data": [
    {"compound": "CCC(=O)NC(n1cnc2c(Nc3cc(OC)c(OC)c(OC)c3)nc(N)nc21)C(Cl)(Cl)Cl", "note": "(centres undefined)", "values": [
      {"measurement": "Activity", "setting": "MDA-MB-231 [1]", "result": 32.3, "unit": "%"},
      {"measurement": "viability at 5 µM", "setting": "MDA-MB-231 [2]", "result": 92.8, "unit": "%"},
      {"measurement": "Activity", "setting": "[3]", "result": "Non-Toxic"},
      {"measurement": "Activity", "setting": "MDA-MB-231 [4]", "result": 1.4, "unit": "%"},
      {"measurement": "Activity", "setting": "MDA-MB-231 [5]", "result": 36.4, "unit": "%"},
      {"measurement": "Activity", "setting": "[6]", "result": "Non-Toxic"},
      {"measurement": "Activity", "setting": "MDA-MB-231 [7]", "result": "Dose-Dependent Effect"},
      {"measurement": "Activity", "setting": "[8]", "result": "Non-Toxic"},
      {"measurement": "Activity", "setting": "[9]", "result": "Non-Toxic"},
      {"measurement": "Activity", "setting": "[10]", "result": "Non-Toxic"},
      {"measurement": "Activity", "setting": "[11]", "result": "Non-Toxic"},
      {"measurement": "Activity", "setting": "4T1 [12]", "result": "inactive"},
      {"measurement": "Activity", "setting": "[13]", "result": "Non-Toxic"},
      {"measurement": "Activity", "setting": "MDA-MB-231 [14]", "result": 11.6, "unit": "%"},
      {"measurement": "IC50", "setting": "MCF7", "result": 3.27, "unit": "µM"},
      {"measurement": "Activity", "setting": "MDA-MB-231 [15]", "result": 2.04, "unit": "%"},
      {"measurement": "Activity", "setting": "[16]", "result": "Non-Toxic"},
      {"measurement": "Activity", "setting": "MDA-MB-231 [17]", "result": 0.99, "unit": "%"},
      {"measurement": "Activity", "setting": "[18]", "result": "Non-Toxic"},
      {"measurement": "Activity", "setting": "4T1 [19]", "result": "inactive"},
      {"measurement": "Activity", "setting": "4T1 [20]", "result": "Active"},
      {"measurement": "Activity", "setting": "[21]", "result": "Non-Toxic"},
      {"measurement": "Activity", "setting": "[22]", "result": "Non-Toxic"},
      {"measurement": "Activity", "setting": "[23]", "result": "Non-Toxic"},
      {"measurement": "IC50", "setting": "MDA-MB-231 [24]", "result": 1.43, "unit": "µM"},
      {"measurement": "Activity", "setting": "MDA-MB-231 [25]", "result": 4.37, "unit": "%"},
      {"measurement": "Activity", "setting": "MDA-MB-231 [26]", "result": 1.87, "unit": "%"},
      {"measurement": "Activity", "setting": "MDA-MB-231 [27]", "result": 0.96, "unit": "%"},
      {"measurement": "IC50", "setting": "A549", "result": 6.47, "unit": "µM"},
      {"measurement": "Activity", "setting": "MDA-MB-231 [28]", "result": 1.57, "unit": "%"},
      {"measurement": "Activity", "setting": "MDA-MB-231 [29]", "result": "Dose-Dependent Effect"},
      {"measurement": "Activity", "setting": "4T1 [30]", "result": "inactive"},
      {"measurement": "Activity", "setting": "MDA-MB-231 [31]", "result": 45.7, "unit": "%"},
      {"measurement": "Activity", "setting": "4T1 [32]", "result": "inactive"}
    ]}
  ]
}
